“Also recorded” adds a separate entry of the source.
What was measured:
[1] = system: E. coli, S. salivarius, L. casei, B. longum or M. luteus; assay: Direct antibacterial activity, all bacterial strains tested (summary); assay type: cell-based
Experimental: The bioactivity of macrolide compounds against 4 strains of common gut bacteria (Escherichia coli, Streptococcus salivarius subsp. salivarius, Lactobacillus casei and Bifidobacterium longum subsp. infantis) and common mammalian skin isolate Micrococcus luteus, was assessed using the Minimum Inhibitory Concentration (MIC) assay. Bacterial strains were purchased from DSMZ (Brunswick, Germany) except M. luteus which was obtained from NCIMB, and stored in 20% glycerol at −80° C. Stock solutions (100% DMSO) of positive controls (azithromycin and erythromycin), and of test compounds 1 and 2 were diluted in broth to working stock concentrations of 256 μg/ml (final assay testing concentration range 128 μg/ml to 0.00391 μg/ml). Stock solutions of all other compounds were diluted in broth to working stock concentrations of 128 μg/ml (final assay testing concentration range 64 μg/ml to 0.00195 μg/ml). Bacterial strains were cultivated in appropriate broth in an anaerobic chamber at 37° C., except for M. luteus which was incubated aerobically at 37° C. 18 h cultures were diluted in broth to an OD595 of 0.1 and then further diluted 1:10. In 96-well plates, in duplicate, 200 μl working stock of test compound was transferred to well 1 and serially diluted (1:2) in broth. 100 μl bacterial suspension was aliquoted into each well and mixed thoroughly. Appropriate sterility controls were included and plates were incubated in an anaerobic chamber, or aerobically (M. luteus) at 37° C. for 18 h. The MIC was determined to be the concentration of test compound in the first well with no visible growth.

[2] = Caco-2 bidirectional permeability assay; assay type: in vitro ADME; conditions: human, Caco-2, 10 μM, 90 minutes
Experimental: (§1) 10 μM Test article was added to the apical (A) surface of Caco-2 cell monolayers (in HBSS buffer with 0.3% DMSO and 5 μM LY at 37 degrees C.) and compound permeation into the basolateral (B) compartment measured following 90 minutes incubation. This was also performed in the reverse direction (basolateral to apical) to investigate active transport. LC-MS/MS is used to quantify levels of both the test and standard control compounds. Efflux ratio was calculated by dividing the B to A permeability by the […]. Drug permeability: Papp=(VA/(Area×time))×([drug]accepter/(([drug]initial,donor)×Dilution Factor). Assessment of Metabolic Stability (Microsome Stability Assay)
(§2) Compounds were tested using a standard caco-2 bidirectional permeability assay (see general methods).

human TLR2 = biological target: T1, human TLR2 (Homo sapiens, UniProt O60603); assay: TLR2 reporter assay (HEK-293-TLR cells, SEAP); assay type: cell-based; conditions: concentrations 5 uM up to 20 uM
T1 construct: host or cells: recombinant HEK-293-TLR cell lines
T1 sequence (O60603 21-784): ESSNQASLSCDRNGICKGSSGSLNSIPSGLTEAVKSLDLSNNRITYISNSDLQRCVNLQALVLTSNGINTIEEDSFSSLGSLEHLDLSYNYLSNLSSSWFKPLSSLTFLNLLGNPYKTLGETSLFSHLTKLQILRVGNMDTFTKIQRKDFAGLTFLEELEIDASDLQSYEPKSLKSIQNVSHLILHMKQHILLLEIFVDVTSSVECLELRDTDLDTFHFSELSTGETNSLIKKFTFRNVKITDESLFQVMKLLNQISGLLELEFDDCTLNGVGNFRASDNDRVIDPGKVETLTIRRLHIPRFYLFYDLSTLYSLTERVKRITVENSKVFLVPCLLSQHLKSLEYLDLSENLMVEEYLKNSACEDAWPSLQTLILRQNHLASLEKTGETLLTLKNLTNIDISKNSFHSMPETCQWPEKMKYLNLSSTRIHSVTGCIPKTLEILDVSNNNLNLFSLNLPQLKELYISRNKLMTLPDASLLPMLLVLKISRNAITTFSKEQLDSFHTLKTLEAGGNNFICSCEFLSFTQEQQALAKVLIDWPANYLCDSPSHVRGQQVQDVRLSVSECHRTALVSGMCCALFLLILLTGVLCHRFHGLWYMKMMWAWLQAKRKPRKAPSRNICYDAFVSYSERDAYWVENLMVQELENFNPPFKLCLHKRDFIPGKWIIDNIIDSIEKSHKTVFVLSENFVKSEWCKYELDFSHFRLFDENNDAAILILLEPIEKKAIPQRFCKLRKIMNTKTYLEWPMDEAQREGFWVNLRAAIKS
Experimental: These cell lines functionally over-express human TLR2 protein as well as a reporter gene which is a secreted alkaline phosphatase (SEAP). The production of this reporter gene is driven by an NFkB inducible promoter. The TLR reporter cell lines activation results are given as optical density values (OD).
20 μl of each test article were used to stimulate the hTLR2 reporter cell lines in a 200 μl of final reaction volume. Samples were tested in duplicate, with at least two concentrations tested—20 uM and 10 uM.
Compounds were tested using a TLR2 reporter assay (see general methods) that measured for stimulation of the TLR2 receptor. Stimulatory effect was measured as an increase in optical density, as compared to the negative control (OD) due to release of secreted alkaline phosphatase (SEAP) and is shown in table 2.

[3] = system: Macrophages from healthy donors; assay: Cytokine secretion from macrophages, cytometric bead assay; assay type: cell-based, Human
Experimental: Study 9: Macrophages from healthy donors where exposed to compounds 1 or 2 for 48 hours. […] Compound 1 is therefore able to induce IFN-gamma secretion in macrophages from healthy donors.
(§3) Study 10: PBMCs and macrophages where exposed to compounds 1 or 2 for 2 days (FIG. 11).
(§4) Study 11: PBMCs and macrophages where exposed to compounds 1 and 2 for 2 days.
(§5) Study 12: PBMCs, macrophages and CD4+ T cells where exposed to compounds 1 and 2 for 2 days.

CD4+ T cells = assay: IL-1beta secretion from CD4+ T cells, cytometric bead assay; assay type: cell-based, Human; conditions: 2 days
Text: as §5

PBMCs = assay: Cytokine secretion from PBMC, cytometric bead assay; assay type: cell-based, Human; conditions: 2 days
Text: as §3, §4, §5

Caco-2 cell monolayers = assay: Caco-2 bidirectional permeability assay; assay type: in vitro ADME
Experimental: as §1, §2

C57bl/6 mice [4] = assay: MHC class I expression on CD11b+ splenocytes of mice after i.v. injection; assay type: in vivo; conditions: spleen 24 h later
Experimental: FIG. 15: % MHC class I high CD11 b+ cells in spleen of 3 individual C57bl/6 mice injected 24 h previously with indicated compound. MHC class I and CD11 b expression was measured by flow cytometry.
Study 14: Compound 1 or 2 was administered i.v. to C57bl/6 mice.

[5] = system: PBMCs from cytomegalovirus (CMV) infected donors; assay: Cytomegalovirus (CMV) antigen cultures; assay type: cell-based, Human
Experimental: Human peripheral blood mononuclear cells (PBMCs) were purified from healthy CMV positive donors with Ficoll-Paque density centrifugation. The PBMC were labeled with 5 μM celltrace violet (Invitrogen) in PBS for 15 minutes and then washed with complete cell culture medium. The labeled PBMC was cultured in the presence of a peptide library spanning the CMV pp65 protein (1 μg peptide/ml, JPT) in AIM-V media (Invitrogen) supplemented with L-glutamine, Sodium pyruvate (Sigma), 10% fetal bovine serum, 100 μg/mL penicillin and 100 μg/mL streptomycin (Hyclone) for 6-8 days in 37° C., 5% CO2. Cell proliferation was assessed with flow cytomtery using a BD FACS Canto II flow cytometer.
Study 7: Virus specific T cell proliferation was also affected by compound 1. […] CD127 is crucial for T cell homeostasis, differentiation and function, and reduced expression correlates with disease severity in HIV and other chronic viral diseases (Crawley et al Sem Imm 2012).
Study 8: PBMCs from CMV infected donors cultured in the presence of CMV antigen where either untreated or exposed to compound 1 or compound 2 for 3 days.

C57bl/6 mice [6] = assay: CD25 high cells in blood of mice after i.v. injection; assay type: in vivo; conditions: highest dose of 5 mg/kg, 24 h
Experimental: FIG. 14: % CD25 high cells in blood of C57bl/6 mice injected 24 h previously with indicated dose of compound 1. CD25 expression was measured by flow cytometry.
Study 13: Compound 1 was administered i.v. to C57bl/6 mice at 0.165 mg/kg to 5 mg/kg. CD25+ cell abundance was increased in animals receiving the highest dose of 5 mg/kg (FIG. 14), as was body weight in the same group (not shown).

| Compound | antibacterial activity (in words) [1] | efflux ratio at 90 min, 10 μM [2] | Papp A→B at 90 min, 10 μM ([2]; apical to basolateral) [×10⁻⁶ cm/s] | TLR2 stimulation (in words) (human TLR2) | IL-1beta secretion in macrophages ([3]; 2 days) | IL-12p70 secretion from macrophages ([3]; 2 days) | expression of RANTES in macrophages ([3]; 2 days) | IFN-gamma secretion from macrophages ([3]; 48 hours) | IL-1beta secretion in CD4+ T cells (CD4+ T cells) | IL-1beta secretion in PBMCs (PBMCs) | IL-12p70 secretion from PBMCs (PBMCs) | expression of RANTES in PBMCs (PBMCs) | cell permeability compared with Azithromycin and EM703 (in words) (Caco-2 cell monolayers) | efflux ratio compared with Azithromycin and EM703 (in words) (Caco-2 cell monolayers) | splenocyte cells (CD11b+) with high MHC I expression (C57bl/6 mice [4]) | IFN-gamma secretion ([5]; 3 days) | IL-7 receptor α (CD127) on activated CMV specific CD8+ T cells ([5]; 6 days) | CD25+ cell abundance in blood (C57bl/6 mice [6]) |
| --- | --- | --- | --- | --- | --- | --- | --- | --- | --- | --- | --- | --- | --- | --- | --- | --- | --- | --- |
| CC[C@H]1OC(=O)[C@H](C)[C@@H](O[C@H]2C[C@@](C)(OC)[C@@H](O)[C@H](C)O2)[C@H](C)[C@@H](O[C@@H]2O[C@H](C)C[C@H](N(C)C)[C@H]2O)[C@](C)(O)C[C@@H](C)CN(C)[C@H](C)[C@@H](O)[C@]1(C)O [Azithromycin, reference compound] | potent activity | > 77.6 | < 0.14 | little or no stimulation |  |  |  |  |  |  |  |  |  |  |  |  |  |  |
| CC[C@H]1OC(=O)[C@H](C)[C@@H](O[C@H]2C[C@@H](N(C)C)[C@H](O)[C@@H](C)O2)[C@H](C)[C@@H](O)[C@](C)(O)C[C@@H](C)CN(C)[C@H](C)[C@@H](O)[C@]1(C)O [Compound 1] | no antibacterial activity; also recorded: no or minimal antibacterial effect | 63.4 |  | stimulated TLR2 at concentrations down to 5 uM | increased | secreted IL-12p70 | high expression | secreted IFN-gamma | no IL-1beta was induced | slightly | secreted IL-12p70 | twofold upregulation | more cell permeable | lower efflux ratio | increase | induced secretion of high levels | increased expression | increased |
| CC[C@H]1OC(=O)[C@H](C)[C@@H](O[C@H]2C[C@@](C)(OC)[C@@H](O)[C@H](C)O2)[C@H](C)[C@@H](O[C@@H]2O[C@H](C)C[C@H](N(C)C)[C@H]2O)[C@](C)(O)C[C@@H](C)C(=O)[C@H](C)[C@@H](O)[C@]1(C)O [Erythromycin, Erythromycin A, reference compound] | potent activity |  |  | little or no stimulation |  |  |  |  |  |  |  |  |  |  |  |  |  |  |

— patent US10919927B2, “Immune stimulating macrolide” (ISR IMMUNE SYSTEM REGULATION HOLDING AB (PUBL), priority 2017, dated 2021)
